#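 Protocol summary: plate cells (96-well), add compound at 5 concentrations, incubate 48 h, interpolate endpoints linearly. Here, GI50 denotes the concentration required for 50% inhibition of growth.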 Activity calls are given as the source filed them. No stated cut-off is given here; in the data, active = GI50 up to about 1.1 µM and inactive = higher.
# Key:
# Test in all cases: growth of human tumour cells (NCI), 48 h
# 786-0 = test system: 786-0
# CAKI-1 = test system: CAKI-1
# COLO 205 = test system: COLO 205
# HCT-15 = test system: HCT-15
# HOP-62 = test system: HOP-62
# HOP-92 = test system: HOP-92
# HT-29 = test system: HT-29
# IGROV-1 = test system: IGROV-1
# K562 = test system: K562
# KM12 = test system: KM12
# LOX IMVI = test system: LOX IMVI
# NCI-H226 = test system: NCI-H226
# NCI-H23 = test system: NCI-H23
# SF-268 = test system: SF-268
# SK-MEL-28 = test system: SK-MEL-28
# SNB-19 = test system: SNB-19
# HL-60 = test system: HL-60
Structure (SMILES),GI50 (786-0),GI50 (CAKI-1),GI50 (COLO 205),GI50 (HCT-15),GI50 (HOP-62),GI50 (HOP-92),GI50 (HT-29),GI50 (IGROV-1),GI50 (K562),GI50 (KM12),GI50 (LOX IMVI),GI50 (NCI-H226),GI50 (NCI-H23),GI50 (SF-268),GI50 (SK-MEL-28),GI50 (SNB-19),GI50 (HL-60)
Nn1c(S)nnc1NNC(=O)C(=O)Nc1cc(Cl)c(Cl)cc1Cl,> 100 µM (inactive),> 100 µM (inactive),> 100 µM (inactive),> 100 µM,> 100 µM (inactive),> 100 µM (inactive),> 100 µM (inactive),> 100 µM (inactive),0.012 µM (active),> 100 µM (inactive),> 100 µM (inactive),> 100 µM (inactive),> 100 µM (inactive),> 100 µM (inactive),> 100 µM (inactive),> 100 µM (inactive),
COc1ccc(-c2cc(Cc3cccs3)c(=O)[nH]n2)cc1,> 100 µM (inactive),,> 100 µM (inactive),49 µM,,49.9 µM (inactive),96.2 µM (inactive),> 100 µM (inactive),,> 100 µM (inactive),,> 100 µM (inactive),56.8 µM (inactive),> 100 µM (inactive),95.1 µM (inactive),> 100 µM (inactive),
CCOc1ccc(NC(=O)/C(Cc2nc3ccccc3nc2O)=N\O)cc1,> 100 µM (inactive),> 100 µM (inactive),> 100 µM (inactive),> 100 µM,> 100 µM (inactive),54.2 µM (inactive),,> 100 µM (inactive),> 100 µM (inactive),> 100 µM (inactive),> 100 µM (inactive),,> 100 µM (inactive),> 100 µM (inactive),> 100 µM (inactive),> 100 µM (inactive),> 10 µM (inactive)
COC(=O)c1ccc(OCc2ccc3oc(=O)c(-c4ccccc4)nc3c2)cc1,28.9 µM (inactive),> 100 µM (inactive),33.9 µM (inactive),> 100 µM,> 100 µM (inactive),,> 100 µM (inactive),,27.9 µM (inactive),> 100 µM (inactive),> 100 µM (inactive),> 100 µM (inactive),71.3 µM (inactive),> 100 µM (inactive),> 100 µM (inactive),> 100 µM (inactive),28.4 µM (inactive)
[N-]=[N+]=CC(=O)C1(C(=O)C=[N+]=[N-])CC1,> 100 µM (inactive),,> 100 µM (inactive),> 100 µM,> 100 µM (inactive),,> 100 µM (inactive),> 100 µM (inactive),> 100 µM (inactive),> 100 µM (inactive),> 100 µM (inactive),> 100 µM (inactive),> 100 µM (inactive),> 100 µM (inactive),> 100 µM (inactive),> 100 µM (inactive),> 100 µM (inactive)
C/C(=N\NC(N)=O)C(CN1CCCCC1)C(c1ccccc1)c1c(O)c2ccccc2oc1=O (configuration not stated),0.6 µM (active),> 100 µM (inactive),> 100 µM (inactive),> 100 µM,> 100 µM (inactive),,> 100 µM (inactive),> 100 µM (inactive),> 100 µM (inactive),> 100 µM (inactive),> 100 µM (inactive),> 100 µM (inactive),,> 100 µM (inactive),> 100 µM (inactive),> 100 µM (inactive),> 100 µM (inactive)
Cn1c(=O)c2[nH]cnc2n(CC(N)=O)c1=O,> 100 µM (inactive),> 100 µM (inactive),> 100 µM (inactive),> 100 µM,> 100 µM (inactive),> 100 µM (inactive),> 100 µM (inactive),> 100 µM (inactive),> 100 µM (inactive),> 100 µM (inactive),,,> 100 µM (inactive),> 100 µM (inactive),> 100 µM (inactive),> 100 µM (inactive),

# Source: ChEMBL document CHEMBL1201862, “PubChem BioAssay data set” (2004)
